Assay results: ChEMBL document CHEMBL4033705, “Screening for bioactive natural products from a 67-compound library of Glycyrrhiza inflata” (Bioorg Med Chem, 2017)

Tests used:
MCF7 = assay: Growth inhibition of human MCF7 cells at 10 uM after 24 hrs by MTS assay relative to control; assay type: functional; conditions: MCF7, 24 h, read-out: GI
SW480 = assay: Growth inhibition of human SW480 cells at 10 uM after 24 hrs by MTS assay relative to control; assay type: functional; conditions: SW480, 24 h, read-out: GI
HepG2 = assay: Growth inhibition of human HepG2 cells at 10 uM after 24 hrs by MTS assay relative to control; assay type: functional; conditions: HepG2, 24 h, read-out: GI
RAW264.7 = assay: Antiinflammatory activity in mouse RAW264.7 cells assessed as inhibition of LPS-induced NO production at 10 uM after 24 hrs by Griess reagent based assay relative to control; assay type: functional; conditions: RAW264.7, 24 h
Homo sapiens = organism: Homo sapiens; assay: Inhibition of LPS-induced NF-kappaB transcription (unknown origin) expressed in human SW480 cells at 10 uM by luciferase reporter gene assay; assay type: cell-based
[1] = target: T1, Tyrosine-protein phosphatase non-receptor type 1 (Homo sapiens) (UniProt P18031); assay: Inhibition of recombinant human PTP1B using p-nitrophenyl phosphate as substrate at 10 uM after 30 mins relative to control
T1 sequence (whole entry): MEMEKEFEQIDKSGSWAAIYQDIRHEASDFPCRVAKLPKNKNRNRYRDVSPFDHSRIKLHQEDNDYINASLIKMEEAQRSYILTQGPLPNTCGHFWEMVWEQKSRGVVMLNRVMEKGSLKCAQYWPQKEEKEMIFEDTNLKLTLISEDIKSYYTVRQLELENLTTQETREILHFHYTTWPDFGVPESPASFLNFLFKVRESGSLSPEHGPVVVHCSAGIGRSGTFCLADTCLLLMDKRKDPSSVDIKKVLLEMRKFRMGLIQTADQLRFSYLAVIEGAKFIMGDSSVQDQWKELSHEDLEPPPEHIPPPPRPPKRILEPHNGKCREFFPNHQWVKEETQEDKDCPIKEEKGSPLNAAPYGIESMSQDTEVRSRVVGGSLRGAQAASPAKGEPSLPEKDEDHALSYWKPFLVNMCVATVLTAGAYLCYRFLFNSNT

[2] = target: Mushroom tyrosinase (Agaricus bisporus) (UniProt O42713+Q00024+C7FF04+C7FF05); assay: Inhibition of mushroom tyrosinase at 10 uM using L-tyrosine as substrate incubated for 15 mins followed by substrate addition relative to control

SMILES | inhibition of growth at 10 µM (MCF7) [%] | inhibition of growth at 10 µM (SW480) [%] | inhibition of growth at 10 µM (HepG2) [%] | inhibition at 10 µM (RAW264.7) [%] | inhibition (Homo sapiens) [%] | inhibition [1] [%] | inhibition [2] [%]
O=C(/C=C/c1ccc(O)c(O)c1)c1ccc(O)c(O)c1 | 5 | 10 | 8 | 1 | 13 | 1 | 16
O=c1c(-c2ccc(O)c(O)c2)coc2cc(O)ccc12 | 0 | 43 | 3 | 0 | 0 | 28 | 9
CC(C)=CCc1c(O)ccc(-c2coc3cc(O)ccc3c2=O)c1O | 36 | 35 | 11 | 25 | 3 | 56 | 6
O=c1c(-c2ccc(O)cc2)coc2cc(O)cc(O)c12 [GENISTEIN] | 6 | 21 | 29 | 13 | 14 | 29 | 2
CC1(C)C=Cc2c(ccc(-c3coc4cc(O)ccc4c3=O)c2O)O1 [GLABRONE] | 12 | 50 | 16 | 5 | 15 | 69 | 3
O=C1C[C@@H](c2ccc(O)cc2)Oc2cc(O)cc(O)c21 [NARINGENIN] | 21 | 28 | 28 | 6 | 22 | 43 | 10
CC1(C)C=Cc2cc(-c3coc4cc(O)ccc4c3=O)cc(O)c2O1 | 0 | 5 | 14 | 22 | 23 | 0 | 0
CC1(C)C=Cc2c(ccc(-c3coc4cc(O)cc(O)c4c3=O)c2O)O1 [LICOISOFLAVONE B] | 14 | 13 | 13 to 14 | 10 | 4 | 69 | 14
O=C1C[C@@H](c2ccc(O)cc2)Oc2cc(O)ccc21 [LIQUIRTIGENIN] | 27 | 9 | 13 | 0 | 19 | 36 | 2
COc1ccc(-c2coc3cc(O)ccc3c2=O)cc1 [FORMONONETIN] | 2 | 4 | 0 | 0 | 3 | 33 | 10
CC(C)=CCc1c(O)cc2occ(-c3ccc(O)cc3)c(=O)c2c1O [WIGHTEONE] | 17 | 34 | 6 | 0 | 11 | 19 | 15
CC(C)=CCc1cc(-c2coc3cc(O)cc(O)c3c2=O)cc(O)c1O [GLYCYRRHISOFLAVONE] | 15 | 18 | 0 | 3 | 8 | 52 | 8
COc1ccc(-c2coc3c(O)c(O)c(CC=C(C)C)cc3c2=O)cc1 | 4 | 51 | 48 | 17 | 21 | 74 | 7
CC(C)=CCc1c(O)ccc2c1oc1c3ccc(O)cc3oc(=O)c21 [ISOSOJAGOL] | 12 | 26 | 23 | 15 | 28 | 21 | 11
CC(C)=CCc1cc2c(=O)cc(-c3ccc4c(c3)C=CC(C)(C)O4)oc2cc1O | 7 | 51 | 11 | 1 | 3 | 33 | 9
COc1cc([C@H]2COc3cc(O)ccc3C2)ccc1O | 14 | 24 | 3 | 23 | 0 | 2 | 6
CC(C)=CCc1c(O)ccc(-c2cc3ccc(O)cc3o2)c1O [2'-O-DEMETHYLBIDWILLOL B] | 16 | 36 | 8 | 32 | 42 | 24 | 12
CC(C)=CCc1c(O)ccc(C(=O)/C=C/c2ccc(O)c(O)c2)c1O | 12 | 11 | 1 | 11 | 14 | 16 | 14
CC(C)=CCc1c(O)cc(O)c2c(=O)c(-c3ccc(O)cc3)coc12 | 23 | 13 | 23 | 18 | 25 | 0 | 16
COc1ccc(-c2coc3cc(O)ccc3c2=O)c(O)c1 [XENOGNOSIN B] | 1 | 13 | 0 | 1 | 4 | 47 | 11
COc1cc(O)ccc1/C=C/C(=O)c1ccc(O)cc1 [ECHINATIN] | 0 | 24 | 6 | 26 | 0 | 75 | 16
O=C1C[C@@H](c2cc(O)cc(O)c2)Oc2cc(O)ccc21 | 13 | 4 | 0 | 15 | 1 | 2 | 12
COc1cc(O)c(-c2coc3cc(O)ccc3c2=O)c(OC)c1CC=C(C)C | 33 | 0 | 0 | 14 | 3 | 18 | 15
O=c1cc(-c2ccc(O)cc2)oc2cc(O)ccc12 | 11 | 22 | 18 | 5 | 0 | 55 | 11
CC1(C)C(=O)CC[C@]2(C)[C@H]3C(=O)C=C4[C@@H]5C[C@@](C)(C(=O)O)CC[C@]5(C)CC[C@@]4(C)[C@]3(C)[C@@H](O)C[C@@H]12 | 25 | 48 | 1 | 6 | 28 | 1 | 5
